Assay results from PubChem BioAssay AID624167 (Sanford-Burnham Center for Chemical Genomics, 2012).
Activity calls are given as the source filed them.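 How the source made its calls: active means mean IC50 for reducing PEG3 promoter reporter signal at or below a set limit, with IC50 above the limit in both counter screens; inactive means the rest, including counter screen hits.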

Legend:
PEG-3 [1] = experiment: inhibition of PEG-3 promoter-driven reporter – cell-based, HeLa, luciferase, CREF/GAPDH counter-screen panel, dose response (AID 624167); settings: HeLa PEG-Prom luciferase reporter, overnight, CREF/GAPDH counter-screens
[2] = as above; settings: CREF/GAPDH counter-screens; GAPDH; mean of runs
GAPDH = experiment: as above; settings: CREF/GAPDH counter-screens
Rat fibroblasts (CREF) = experiment: as above; settings: CREF/GAPDH counter-screens
PEG-3 [3] = molecular target: PEG-3 (UniProt Q6IN02); experiment: as above; settings: HeLa PEG-Prom luciferase reporter, overnight, CREF/GAPDH counter-screens, mean of runs
[4] = run 1, dose range 1, individual replicate IC50 per panel
[5] = run 2, dose range 1, individual replicate IC50 per panel

Chain of PEG-3 (UniProt Q6IN02) (Q6IN02 whole entry, looked up): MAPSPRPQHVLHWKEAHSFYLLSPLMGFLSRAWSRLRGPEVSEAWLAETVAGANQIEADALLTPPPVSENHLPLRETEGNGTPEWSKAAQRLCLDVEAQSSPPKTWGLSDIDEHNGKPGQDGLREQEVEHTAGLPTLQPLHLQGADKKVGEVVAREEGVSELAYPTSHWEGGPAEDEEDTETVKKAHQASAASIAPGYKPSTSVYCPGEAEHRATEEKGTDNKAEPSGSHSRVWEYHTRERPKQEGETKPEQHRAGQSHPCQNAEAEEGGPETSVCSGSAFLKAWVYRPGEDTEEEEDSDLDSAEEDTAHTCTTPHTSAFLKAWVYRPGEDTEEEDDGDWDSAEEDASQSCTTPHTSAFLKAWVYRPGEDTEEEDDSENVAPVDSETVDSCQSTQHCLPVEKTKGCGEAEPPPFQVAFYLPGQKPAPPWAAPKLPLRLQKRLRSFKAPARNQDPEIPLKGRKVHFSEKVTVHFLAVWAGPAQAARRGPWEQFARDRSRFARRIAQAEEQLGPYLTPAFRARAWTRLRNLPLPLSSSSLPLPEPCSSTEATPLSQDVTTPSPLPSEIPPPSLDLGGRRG

Structure (SMILES)	IC50 (PEG-3 [1]; [4]) [µM]	IC50 (PEG-3 [1]; [5]) [µM]	IC50 [2]	IC50 (GAPDH; [4]) [µM]	IC50 (GAPDH; [5]) [µM]	IC50 (Rat fibroblasts (CREF); mean of runs)	IC50 (Rat fibroblasts (CREF); [4]) [µM]	IC50 (Rat fibroblasts (CREF); [5]) [µM]	IC50 (PEG-3 [3])
COC(COC(N)=O)C1=C(N2CC2)C(=O)C(C)=C(N2CC2)C1=O (centres undefined)	1.29	0.583	15 µM	10.2	19.8	4.51 µM	8.05	0.958	0.938 µM
O=C1C=CC(=O)N1c1ccc(-c2nc3ccccc3o2)cc1	11.3	8.02	inactive	41.6	35.3	12.8 µM	5.55	20	9.67 µM
CN(C)S(=O)(=O)c1ccc(-c2csc(N/N=C/c3ccc(O)cc3)n2)cc1	8.68	7.77	12.1 µM	11.7	12.5	9.81 µM	9.26	10.4	8.22 µM
COC1CC(C)C(OC)c2cc(O)cc(c2O)NC(=O)C(C)=CC=CC(C)C(OC(N)=O)C(C)=CC(C)C1OC (centres undefined)	22.2	5.41	inactive	45.1	45.7	> 100 µM (inactive)	> 100	> 100	13.8 µM
O=c1cnnc(N/N=C/c2ccccn2)[nH]1	1.69	2.45	> 100 µM (inactive)	> 100	> 100	67.1 µM (inactive)	> 100	34.1	2.07 µM
C(=N\Nc1ccc2ccccc2n1)/c1ccc2c(c1)OCCO2	5.86	8.13	3.75 µM	6.78	0.719	51.2 µM (inactive)	2.43	> 100	6.99 µM
O=C(/C=C/c1ccc(Cl)c([N+](=O)[O-])c1)c1ccc(O)cc1	8.19	4.5	16.6 µM	17.9	15.3	26.5 µM	29.7	23.2	6.34 µM
CN(C)c1c([N+](=O)[O-])cc(N2C(=O)C=CC2=O)cc1[N+](=O)[O-]	7.49	5.58	23.6 µM	24.6	22.7	14 µM	10.7	17.3	6.53 µM
O=C(CCSc1nc2ccccc2s1)N/N=C/c1c(O)ccc2ccccc12	5.86	2.71	> 100 µM (inactive)	> 100	> 100	> 100 µM (inactive)	> 100	> 100	4.29 µM
CN(O)C(=S)c1ccccc1	10.3	42.5	> 100 µM (inactive)	> 100	> 100	> 100 µM (inactive)	> 100	> 100	inactive
CCCCC(=O)NC(c1ccccc1OC)c1ccc2cccnc2c1O (centres undefined)	3.35	17.8	inactive	36.5	> 100	> 100 µM (inactive)	> 100	> 100	10.6 µM
CC(/C=C/c1ccccc1)=N/NC(=O)c1cc([N+](=O)[O-])cc([N+](=O)[O-])c1	> 100	3.58	inactive	> 100	9.02	57.3 µM (inactive)	14.5	> 100	inactive
CCCC(=O)NC(c1ccc(C)cc1)c1ccc2cccnc2c1O (centres undefined)	4.69	7.19	inactive	> 100	74.7	> 100 µM (inactive)	> 100	> 100	5.94 µM
C=CCn1c(COc2ccccc2)nnc1SC(C)C(=O)N/N=C/c1cc(Cl)ccc1O (centres undefined)	5.09	3.43	> 100 µM (inactive)	> 100	> 100	> 100 µM (inactive)	> 100	> 100	4.26 µM
COc1ccc(C(NC(C)=O)c2ccc3cccnc3c2O)c(OC)c1 (centres undefined)	3.68	6.97	> 100 µM (inactive)	> 100	> 100	51.8 µM (inactive)	3.55	> 100	5.33 µM
CCCC(=O)NC(c1ccc(N(C)C)cc1)c1ccc2cccnc2c1O (centres undefined)	2.74	0.758	> 100 µM (inactive)	> 100	> 100	72.3 µM (inactive)	> 100	44.7	1.75 µM
